Source: article PMC10132538, “Regulation of the two-pore domain potassium channel, THIK-1 and THIK-2, by G protein coupled receptors” (PLOS ONE, 2023)
Values belong to the compound of their own block, whether it stands above or below them.

Tests used:
M1R = biological target: T1, M1R (Homo sapiens, UniProt P11229); assay: M1R-induced increase of THIK-1 channel current, whole cell patch clamp in HEK293T cells; format: cell-based; settings: BAPTA 5 mM in pipette solution, n = 8
T1 construct: expressed in transfected cells; host or cells: HEK293T
T1 sequence (P11229 1-460): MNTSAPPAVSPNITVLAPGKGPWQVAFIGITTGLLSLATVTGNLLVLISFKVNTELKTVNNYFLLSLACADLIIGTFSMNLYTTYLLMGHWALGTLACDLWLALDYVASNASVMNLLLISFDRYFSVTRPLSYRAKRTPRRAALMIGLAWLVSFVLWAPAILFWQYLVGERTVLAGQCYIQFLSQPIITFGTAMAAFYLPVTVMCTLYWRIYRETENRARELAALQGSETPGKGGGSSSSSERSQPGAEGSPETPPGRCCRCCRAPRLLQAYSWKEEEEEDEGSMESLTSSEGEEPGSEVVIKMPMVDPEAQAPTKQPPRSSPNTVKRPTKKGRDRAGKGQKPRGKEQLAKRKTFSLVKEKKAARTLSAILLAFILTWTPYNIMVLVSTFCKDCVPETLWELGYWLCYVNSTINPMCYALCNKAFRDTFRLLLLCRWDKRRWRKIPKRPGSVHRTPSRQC
Source text: (§1) Coding region of mGu2 (M1-P840) was amplified by conventional PCR with designed primers and the resulting product was subcloned into pEYFP-N1 vector at the BglII and EcoRI sites. The cDNAs for mouse THIK-2 channel and dimeric THIK channels were subcloned into pcDNA3.1(-) vector. To increase the surface membrane expression of the THIK-2 channel, 29 residues (Ser2-Ser30) were removed (ΔN-THIK-2). […] Ci-VSP-IRES-GFP vector was kindly gifted by Dr. Y. Okamura (Osaka University, Osaka, Japan). HEK293T cells or CHO-K1 cells were seeded on glasses and transfected with the plasmid DNAs for THIK channels, receptors and a transfection marker of yellow fluorescent protein (YFP). Electrophysiological experiments were performed 24–72 h after the transfection. […] Pertussis toxin (PTX) was purchased from Wako (Osaka, Japan). […] All reagents were dissolved at high concentration and stored at -20 °C as the stock solutions. The stock reagent solution was diluted at concentrations for the electrophysiological experiments. PTX was solved in the culture medium (final concentration, 300 ng/mL) and cells were incubated in it for more than 16 h. U73122 or U73343 (final concentration, 2 μM each) was dissolved in Hanks’ Balanced Salt Solution (HBSS, Invitrogen, Carlsbad, CA, USA) supplemented with 1 mM Ca^2+ and 0.3 mM Mg^2+. Cells were incubated in HBSS with U73122 or U73343 for 10 min at room temperature before the whole cell current recording.
(§2) Composition of bath solution was (in mM) 140 NaCl, 4 KCl, 1 CaCl2, 0.3 MgCl2, 10 HEPES (pH 7.4 adjusted with NaOH). The pipette solution for whole cell patch clamp experiments contained (mM) 130 KCl, 5 Na2-ATP, 3 EGTA, 0.1 CaCl2, 10 HEPES, 4 MgCl2, (pH 7.3 adjusted with KOH). GTP (0.3 mM) was supplemented in the pipette solution. Once the whole cell configuration was established, the cell was held at -80mV and ramp pulses (-120mV to +40mV for 0.4 sec) were applied every 5 sec. Various concentrations of the agonists were applied using a fast perfusion system (VC77SP, Warner Instruments, Hamden, CT, USA). The PKC inhibitor chelerythrine was included in the pipette solution.
(§3) The amplitude of the THIK-1 channel current at 0 mV was measured from every trace induced by the ramp pulse protocol to minimize the fraction of non-selective cationic leak current. The current amplitude before the agonist application was set as the basal current amplitude (I0). The effects of GPCRs on the THIK-1 channel were evaluated as the ratio of the current amplitude after the agonist application to I0 (Iagonist/I0). The EC50 values were estimated by fitting the concentration response curve to a Hill equation (Origin2016; OriginLab, Northampton, MA, USA). […] The effects of A2aR on the Gi/o-R-induced current increase of the THIK-1 channel was estimated as follows. […] All data are shown as means and S.D. The statistical significance between two or more than two groups was estimated by unpaired Student’s t-test or by a one-way analysis of variance (ANOVA) followed by Tukey’s test, respectively. […] Values of p≤ 0.05 were considered as statistically significant (***:p≤0.001, **:0.001<p≤0.01, *:0.01<p≤0.05, n.s.:p>0.05).

[1] = system: endogenously expressed channels in HEK293T cells; assay: Effect of receptor stimulation on the endogenous current in HEK293T cells without THIK-1; format: cell-based; settings: HEK293T transfected with GABABR, no THIK-1
Source text: The amplitude of the current increase at the 15th trace (ΔI15th) after the application of GABA or oxo-M were normalized to that at the 5th traces (ΔI5th) with or without additional activation of A2aR (ΔI15th/ΔI5th).
The current density at 0 mV (I0) in HEK293T cell transfected with indicated receptors and the effects of the receptor stimulation are shown as Mean and S.D.

[2] = system: intracellular cAMP (Gs signaling, A2aR); assay: Intracellular cAMP, FRET based cAMP indicator in HEK293T cells; format: cell-based; settings: NECA 10 μM
Procedure: HEK293T cells were culture on the glass bottom dishes and transfected with cDNAs for FRET based cAMP indicators and A2aR. […] transfection, cells were incubated in bath solution containing (mM) 140 NaCl, 1 CaCl2, 4 KCl, 0.3 MgCl2, 10 HEPES (pH was adjusted to 7.4 with NaOH) and fluorescent signals were acquired as previously described. CFP was excited by 442 nm laser line and emitted light was passed through S470/30 and S535/30 filters (Chroma), respectively. The fluorescence images were then amplified by an image intensifier unit (C8600, Hamamatsu Photonics) and recorded every 5 s using a cooled CCD camera (Qimage Retiga 6000, Roper Scientific). A laser switching controller (Olympus) was operated by using MetaFluor imaging software (Universal Imaging). The fluorescent intensities of CFP and YFP upon the CFP excitation were measured from fluorescent cells and cell free background.
Time dependent changes of the FRET efficiency of the FRET based cAMP indicator (FFRET/FCFP) are shown. Black bars show the application of the reagents, which was carried out by perfusion of the chamber (0.2-0.3 mL bath volume) with bath solution (1 mL) containing the reagent. […] The decrease in FRET were thought to be caused by the activation of the endogenous A2aR (Fig. S2E). Symbols show mean and SD.

THIK-1 channel = assay: Basal current (I0) density of THIK-1 channel at 0 mV in HEK293T cells; format: cell-based; settings: 0 mV, before agonist
Source text: as §1, §2, §3

mGlu1 = biological target: T2, mGlu1 (Homo sapiens, UniProt Q13255); assay: mGlu1-induced increase of THIK-1 channel current, whole cell patch clamp in HEK293T cells; format: cell-based; settings: 2 μM for 10 min; glutamate 1 mM
T2 construct: expressed in transfected cells; host or cells: HEK293T
T2 sequence (Q13255 19-1194): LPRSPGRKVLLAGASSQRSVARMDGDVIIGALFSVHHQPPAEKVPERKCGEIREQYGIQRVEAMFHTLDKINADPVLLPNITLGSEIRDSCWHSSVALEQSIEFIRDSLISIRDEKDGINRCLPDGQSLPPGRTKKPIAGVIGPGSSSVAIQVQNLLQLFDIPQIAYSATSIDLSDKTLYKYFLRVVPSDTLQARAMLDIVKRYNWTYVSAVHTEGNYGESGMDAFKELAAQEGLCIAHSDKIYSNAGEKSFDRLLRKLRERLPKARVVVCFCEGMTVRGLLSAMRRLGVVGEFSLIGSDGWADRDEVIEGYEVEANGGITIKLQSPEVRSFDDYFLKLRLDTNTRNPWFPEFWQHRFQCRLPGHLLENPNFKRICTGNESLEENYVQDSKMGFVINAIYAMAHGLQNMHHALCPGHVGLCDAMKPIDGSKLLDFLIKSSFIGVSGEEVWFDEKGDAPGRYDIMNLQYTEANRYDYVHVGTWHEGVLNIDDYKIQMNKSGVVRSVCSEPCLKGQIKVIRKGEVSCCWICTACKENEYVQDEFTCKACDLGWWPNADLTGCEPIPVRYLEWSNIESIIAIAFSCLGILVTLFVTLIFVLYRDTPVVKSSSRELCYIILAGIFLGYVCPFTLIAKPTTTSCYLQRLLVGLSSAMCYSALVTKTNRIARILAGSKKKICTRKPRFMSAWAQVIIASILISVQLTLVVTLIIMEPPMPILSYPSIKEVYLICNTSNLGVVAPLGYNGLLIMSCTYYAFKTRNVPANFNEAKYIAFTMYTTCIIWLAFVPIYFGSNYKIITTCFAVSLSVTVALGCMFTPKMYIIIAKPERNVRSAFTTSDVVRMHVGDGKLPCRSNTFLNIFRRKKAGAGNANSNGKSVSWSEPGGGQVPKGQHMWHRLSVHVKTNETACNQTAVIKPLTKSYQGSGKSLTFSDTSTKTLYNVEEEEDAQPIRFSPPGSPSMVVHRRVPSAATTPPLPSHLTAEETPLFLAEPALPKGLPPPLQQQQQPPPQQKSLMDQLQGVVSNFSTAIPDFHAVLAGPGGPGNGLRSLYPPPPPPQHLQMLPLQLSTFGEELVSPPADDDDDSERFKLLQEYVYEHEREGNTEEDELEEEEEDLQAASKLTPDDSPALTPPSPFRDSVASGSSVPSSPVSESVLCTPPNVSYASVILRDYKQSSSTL
Source text: as §1, with “PTX was solved in the culture medium (final concentration, 300 ng/mL) and cells were incubated in it for more than 16 h. U73122 or U73343 (final concentration, 2 μM each) was dissolved in Hanks’ Balanced Salt Solution (HBSS, Invitrogen, Carlsbad, CA, USA) supplemented with 1 mM Ca^2+ and 0.3 mM Mg^2+. Cells were incubated in HBSS with U73122 or U73343 for 10 min at room temperature before the whole cell current recording.” left out
The amplitude of the THIK-1 channel current at 0 mV was measured from every trace induced by the ramp pulse protocol to minimize the fraction of non-selective cationic leak current. […] The effects of GPCRs on the THIK-1 channel were evaluated as the ratio of the current amplitude after the agonist application to I0 (Iagonist/I0). […]

[3] = biological target: T3, M1R-YFP / ΔN-THIK-2 channel (Homo sapiens, UniProt P11229); assay: M1R-YFP-induced increase of ΔN-THIK-2 channel current in CHO-K1 cells; format: cell-based, mouse; settings: oxo-M 10 μM
T3 construct: expressed in transfected cells; host or cells: CHO-K1
T3 sequence (P11229 1-460): T1 sequence (P11229 1-460)
Source text: as §1, with “Cells were incubated in HBSS with U73122 or U73343 for 10 min at room temperature before the whole cell current recording.” left out

- effect of the M1R activation (Iagonist/I0) (M1R): 3.0 ± 1.0
Compound: O=C(O)CN(CC(=O)O)c1ccccc1OCCOc1ccccc1N(CC(=O)O)CC(=O)O [BAPTA]

Compound: NCCCC(=O)O [GABA]
- Effect of agonist (Iagonist/I0) [1]: 1.03 ± 0.06

Compound: CCNC(=O)[C@H]1O[C@@H](n2cnc3c(N)ncnc32)[C@H](O)[C@@H]1O [NECA, 5’-N-ethylcarboxamidoadenosine]
- Gs signaling (cAMP indicator) ([2]; HEK293T transfected with heterologous A2aR): fully activated
- intracellular cAMP ([2]; HEK293T without heterologous A2aR (endogenous A2aR), effect partial): increased the intracellular cAMP

- effect of mGlu1 on THIK-1 current after PLC reagent (mGlu1): inhibited
- effect of M1R-YFP on ΔN-THIK-2 channel after PLC reagent [3]: inhibited
Compound: COc1ccc2c(c1)CC[C@@H]1[C@@H]2CC[C@]2(C)[C@@H](NCCCCCCN3C(=O)C=CC3=O)CC[C@@H]12 [U73122]
- Basal current (I0) density of THIK-1 channel (THIK-1 channel; THIK-1 + M1R, PLC reagent 2 μM 10 min): 35.7 ± 34.7 (9)^n.s pA/pF
- Basal current (I0) density of THIK-1 channel (THIK-1 channel; THIK-1 + M3R, PLC reagent 2 μM 10 min): 99.2 ± 117.3 (7)^n.s pA/pF
- Basal current (I0) density of THIK-1 channel (THIK-1 channel; THIK-1 + mGlu1, PLC reagent 2 μM 10 min): 112.2 ± 121.4 (10)^n.s pA/pF
